Assays:
AR42J tumor-bearing mice [1] = assay: Toxicity studies (blood count, blood biochemistry, histopathology)
Description: On day 12 post-treatment, the tumor tissues were processed and subjected to scRNA-seq and immunohistochemical (IHC) analysis (see Supplementary Methods, Section S4). […] Toxicity studies were conducted when the mice reached one of the predefined endpoints (Supplementary Methods, Section S6). […]
Section S6: Toxicity Studies
Blood samples were collected retro-orbitally using a glass capillary tube when mice reached one of the predefined endpoints. The samples were then centrifuged at 6,000 rpm for 10 minutes (Centrifuge 5417R, Eppendorf SE, Enfield, CT, USA), and the supernatant was transferred into a preventive care profile plus rotor for analysis of RBC, WBC, PLT, ALT, AST, ALP, BUN, and CREA. Sample analysis was performed

AR42J tumor-bearing mice [2] = assay: In vivo therapeutic study (tumor volume, survival, body weight); design: species or system BALB/c nude mice
From the text: When the tumor volume reached approximately 100 mm^3, the AR42J tumor-bearing mice were randomly divided into four treatment groups (n = 8/group).
Tumor volumes and body weights were monitored every two days. The following humane endpoints were established as follows: tumor volume exceeding 1500 mm^3, weight loss greater than 15%, or observable signs of pain or distress. Mice meeting one of these criteria were euthanized.

GSTK1 = assay: Western blot of GSTK1 expression; assay type: cell-based, rat; settings: cultured AR42J cells, 24 h
Description: pathway analysis, and Reactome pathway analysis. GO enrichment analysis was conducted using clusterProfiler (v4.0.5). KEGG pathway enrichment was analyzed using clusterProfiler, focusing on pathways relevant to radiotherapy- related detoxification, including glutathione metabolism and cytochrome P450- mediated metabolism of xenobiotics. Reactome pathway analysis was performed using […]
to radiosensitivity regulation. […]
protease and phosphatase inhibitors. Total protein (20 μ g per sample) was separated […]
ABclonal, Cat. No. A5226). After three washes with TBST, membranes were […]
temperature. Protein bands were visualized using an enhanced chemiluminescence detection system (CLINX, ChemiScope 6200).
Section S6: Toxicity Studies […]
mice reached one of the predefined endpoints. The samples were then centrifuged at […]
RBC, WBC, PLT, ALT, AST, ALP, BUN, and CREA. Sample analysis was performed

[3] = post-treatment blood biochemistry

For `CO[C@H]1C[C@@H]2CC[C@@H](C)[C@@](O)(O2)C(=O)C(=O)N2CCCC[C@H]2C(=O)O[C@H]([C@H](C)C[C@@H]2CC[C@@H](OCCO)[C@H](OC)C2)CC(=O)[C@H](C)/C=C(\C)[C@@H](O)[C@@H](OC)C(=O)[C@H](C)C[C@H](C)/C=C/C=C/C=C/1C` [RAD001, everolimus, reference compound], the GRA (AR42J tumor-bearing mice [1]; post-treatment CBC) was 23.97 ± 4.05%, the “GRA#” value (AR42J tumor-bearing mice [1]; post-treatment CBC) was 0.19 ± 0.05 109/L and the HCT (AR42J tumor-bearing mice [1]; post-treatment CBC) was 25.73 ± 1.05%. For the same molecule, the HGB (AR42J tumor-bearing mice [1]; post-treatment CBC) was 178.57 ± 3.40 g/L, the LYM (AR42J tumor-bearing mice [1]; post-treatment CBC) was 53.9 ± 5.47% and the “LYM#” value (AR42J tumor-bearing mice [1]; post-treatment CBC) was 0.41 ± 0.03 109/L. For the same molecule, the MCH (AR42J tumor-bearing mice [1]; post-treatment CBC) was 35.33 ± 0.87 pg, the MCHC (AR42J tumor-bearing mice [1]; post-treatment CBC) was 693.67 ± 15.95 g/L and the MCV (AR42J tumor-bearing mice [1]; post-treatment CBC) was 51.03 ± 0.57 fL. For the same molecule, the MON (AR42J tumor-bearing mice [1]; post-treatment CBC) was 22.13 ± 2.32%, the “MON#” value (AR42J tumor-bearing mice [1]; post-treatment CBC) was 0.17 ± 0.05 109/L and the MPV (AR42J tumor-bearing mice [1]; post-treatment CBC) was 13.8 ± 0.35 fL. The P-LCR (AR42J tumor-bearing mice [1]; post-treatment CBC) was 45.87 ± 1.03%, the PCT (AR42J tumor-bearing mice [1]; post-treatment CBC) was 0.12 ± 0.01% and the PDW (AR42J tumor-bearing mice [1]; post-treatment CBC) was 32.9 ± 0.3 fL. For the same molecule, the PLT (AR42J tumor-bearing mice [1]; post-treatment CBC) was 104.33 ± 2.52 109/L, the RBC (AR42J tumor-bearing mice [1]; post-treatment CBC) was 5.05 ± 0.22 1012/L and the RDWCV (AR42J tumor-bearing mice [1]; post-treatment CBC) was 11.23 ± 0.15%. The RDWSD (AR42J tumor-bearing mice [1]; post-treatment CBC) was 23.33 ± 1.10 fL, the WBC (AR42J tumor-bearing mice [1]; post-treatment CBC) was 7.67 ± 1.15 109/L and the ALP (AR42J tumor-bearing mice [1]; [3]) was 150.68 ± 32.99 U/L. The ALT (AR42J tumor-bearing mice [1]; [3]) was 43.73 ± 11.08 U/L, the AST (AR42J tumor-bearing mice [1]; [3]) was 109.76 ± 13.94 U/L and the UA (AR42J tumor-bearing mice [1]; [3]) was 140.92 ± 41.88 µmol/L. It also gave a UREA (AR42J tumor-bearing mice [1]; [3]) of 3.49 ± 1.30 mmol/L, a median survival time (AR42J tumor-bearing mice [2]; Kaplan-Meier) of 32 days and an average tumor volume (AR42J tumor-bearing mice [2]; day 10) of 197.63 ± 40.92 mm³. For the same molecule, the “GSTK1 expression (Western blot)” value (GSTK1) was “lower in the mTOR group than in the Veh group”.

Source: paper PMC12439480, “Dimeric CCK2R radiotheranostic tracers synergize with mTOR inhibition for enhanced tumor therapy” (Theranostics, 2025)
